Literature values, collected in article PMC7004556 (Cancer Science, 2020).

Assays:
FGFR pathway = conditions: cited from earlier work
patients = conditions: phase I study, only at the highest dose investigated (12 mg); cited from earlier work
advanced gastric cancer = advanced gastric cancer with FGFR2 polysomy or gene amplification; cited from earlier work
advanced solid tumors = conditions: Japanese patients with advanced solid tumors, duration ≥4 weeks; cited from earlier work

Row | Compound | Phosphate and 1,25‐(OH)2‐vitamin D (FGFR pathway; studies in solid tumors) | DLT observed (patients) | Serum phosphate (FGFR pathway) | Effect on progression‐free survival compared with paclitaxel (advanced gastric cancer) | Best response (advanced solid tumors)
1 | COc1cc(OC)cc(N(CCNC(C)C)c2ccc3ncc(-c4cnn(C)c4)nc3c2)c1 [JNJ‐42756493] | increased | detachment of retinal pigment epithelium <grade 3 was the only DLT observed | – | – | –
2 | AZD4547 | – | – | increase | no significant effect | stable disease
